# Assay results reported in patent publication EP0357495A2, “3'Azido-3'-deoxythymidine (AZT) derivatives active against the AIDS virus” (IRE-CELLTARG S.A., priority 1988, dated 1990).
# “And” between values parts separate entries of the source, which are not always exact repeats. Identical values can stand only once.
# Key:
# [1] = tested on: virus HIV-1 (souche HTLV-IIIB); test: anti-HIV activity in HIV-infected MT4 cells (MTT method); assay type: cell-based; conditions: for activité (compared with AZT, in words): comparison with AZT
# Method: (§1) Les produits (AZT, AZT-5′ hémisuccinyl et AZT 5′-leucyl) à différentes concentrations ont été mis en présence de cellules MT4 (4 X 10⁴ cellules par puits de microtray) infectées ou non avec 100 CCID₅₀ de virus HIV-1 (souche HTLV-IIIB). La CCID₅₀ représente la quantité de virus à rajouter pour obtenir une infection de 50 % des cellules (dose infectieuse de cellules en culture 50).
# (§2) Après cinq jours d'incubation à 37°C, le nombre de cellules vivantes a été déterminé par la méthode au MTT, basée sur la réduction par les cellules vivantes du 3′-(4, 5-diméthylthiazol-2-yl)-2,5-diphényltétrazoliumbromide, jaune, en formazan, bleu. L'activité antivirale et la cytotoxicité sont exprimées sous forme de ED₅₀ et de CD₅₀. La CD₅₀ représente la dose qui tue 50 % des cellules non infectées et la ED₅₀ représente la dose qui protège 50 % des cellules de l'infection virale.
# (§3) La même expérience que celle décrite ci-avant (exemple 9.1)) a été réalisée, mais en présence de thymidine 250 µM et de 2′déoxycytidine 500 µM. En effet l'AZT entre en compétition avec la thymidine au niveau des enzymes de phosphorylation qui vont le transformer en AZT triphosphate (AZT TP) qui est la forme active du produit. Un excès de thymidine réduit donc très fortement l'activité de l'AZT, ce qui se traduit par une ED₅₀ plus élevée. Par conséquent, si le dérivé de l'AZT doit son activité à la libération d'AZT qui à son tour est phosphorylé en AZT TP, un excès de thymidine aura également pour effet d'élever la ED₅₀ du dérivé. La thymidine étant cytotoxique à la concentration utilisée, il est nécessaire de rajouter de la 2′déoxycytidine pour empêcher cette toxicité.
# (§4) Les protocoles expérimentaux sont ceux décrits à l'exemple 9 3.1) et 9 3).
# cellules MT4 = test: cytotoxicity on non-infected MT4 cells (MTT method); assay type: cell-based; conditions: for toxicité (compared with AZT, in words): comparison with AZT
# Method: as §1, §2
# as §3, with “En” for “La même expérience que celle décrite ci-avant (exemple 9.1)) a été réalisée, mais en présence de thymidine 250 µM et de 2′déoxycytidine 500 µM. En”
# as §4
# [2] = tested on: virus HIV-1 (souche HTLV-IIIB); test: viral antigen expression in HIV-infected HUT-78 cells (indirect immunofluorescence, laser cytofluorescence); assay type: cell-based
# Source text: Les produits (AZT et AZT-5′ hémisuccinyl) à différentes concentrations ont été mis en présence de cellules HUT-78 infectées par le virus HIV-1 (souche HTLV-IIIB) à une multiplicité d'infection de 0.4. Tous les quatre jours, 3/4 du milieu ont été remplacés par du milieu frais. Après douze jours, l'expression des antigènes viraux a été mesurée par immunofluorescence indirecte à l'aide d'un sérum anti-HIV-I positif, et par cytofluorescence laser, tel que décrit par Pauwels et al. J. Virol. Meth. 16, 171-185 (1987).
# Des résultats sont exprimés dans le tableau 3 en ED₅₀ et en pourcentage d'effet protecteur selon la formule : [formula] TABLEAU 3
# [3] = tested on: virus HIV-1 (souche HTLV-IIIB); test: viral antigen assay in HIV-infected human peripheral blood lymphocytes; assay type: cell-based; conditions: day 14 of culture
# Source text: Les lymphocytes ont été extraits d'un concentré plaquettaire par séparation sur gradient de Ficoll et élimination des adhérentes. Après 3 jours de stimulation par la phytohémaglutinine, ils ont été transférés dans un milieu additionné d'interleukine-2 (IL-2) est infectés par le virus HIV-1 (souche HTLV-IIIB). L'AZT et son dérivé 5′ hémisuccinate à différentes concentrations ont été rajoutés aux cellules au moment de l'infection.
# Trois jours après l'infection, le milieu a été remplacé par du milieu frais additionné d'IL-2, contenant les produits aux concentrations désirées pour la moitié des cellules, et ne contenant plus de produit pour l'autre moitié. Ensuite, le milieu des cellules a été remplacé à moitié par du milieu frais additionné d'IL-2, contenant ou non les produits aux concentrations désirées, tous les 3 à 4 jours.
# La multiplication du virus a été suivie par dosage des antigènes viraux dans les surnageants de culture (Innotest HIV-Organon Teknika).
# [4] = tested on: virus MSV Moloney sarcoma virus; test: in vivo activity in MSV-infected NMRI mice (survival, tumour appearance); set-up: species or system souris NMRI
# Method: L'AZT et ses dérivés selon l'invention ont été testés in vivo chez la souris NMRI (souriceaux de 2 jours) infectée par le virus MSV Moloney sarcoma virus). La drogue est adminitrée i.p. pendant 5 jours dans un volume de 25 µl/g de poids corporel. Le virus est inoculé dans la cuisse gauche de l'animal deux heures après la première administration de drogue. Les animaux sont contrôlés tous les jours selon trois critères : survie, apparition de la tumeur et poids (toxicité) pendant 50 jours. Les résultats sont repris au tableau 7 et dans les figures 8 à 11. [formula]
# On entend par temps médian de survie le temps où la moitié des souris sont encore vivantes. [formula] Tableau 7
# [5] = in vivo toxicity, intraperitoneal, 5-day-old NMRI mice; set-up: species or system souriceaux NMRI; conditions: AZT, i.p.
# Method: L'AZT et son dérivé 5′hémisuccinyl ont été administrés par voie infra-péritonéale à de souriceaux NMRI âgés de 5 jours (100 µl/g de poids corporel). Les animaux ont été contrôlés tous les jours selon 2 critères : survie et poids pendant 25 jours.
# Les résultats sont repris au tableau 9. Les souriceaux traités n'ont pas montre de différence significative dans la prise de poids par rapport aux contrôles. Tableau 9
# HIV = conditions: patients at AIDS stage, estimate; cited from earlier work
# [6] = tableau 6, MT-4, with thymidine(250 µM) + déoxy-cytidine (500 µM)
# [7] = tableau 6, MT-4, without thymidine / déoxy-cytidine
# [8] = listed as dérive 5′-valine de l'AZT
# [9] = tableau 4, MT-4, without thymidine / 2′déoxycytidine
# [10] = tableau 2, non-infected MT4 cells, 5 days at 37°C, dose that kills 50 % of cells
structure (smiles),measurement,setting,value
"Cc1cn([C@H]2C[C@H](N=[N+]=[N-])[C@@H](COC(=O)[C@@H](NC(=O)OC(C)(C)C)C(C)C)O2)c(=O)[nH]c1=O [AZT 5′tBoc valyl, 5′-O-(Boc-L-valyl)-3′-azido-3′-deoxythymidine]","activité (compared with AZT, in words)",[1],activités comparables
same,ED₅₀,[1]; [6],11.002 µM
same,SI,[1]; [6],33
same,ED₅₀,[1]; [7],0.0731 µM
same,SI,[1]; [7],5740
same,"toxicité (compared with AZT, in words)",cellules MT4,moins toxiques que l'AZT
same,CD₅₀,cellules MT4; [6],358 µM
same,CD₅₀,cellules MT4; [7],420 µM
"Cc1cn([C@H]2C[C@H](N=[N+]=[N-])[C@@H](COC(=O)[C@@H](N)C(C)C)O2)c(=O)[nH]c1=O [AZT 5′valyl, 5′-O-(L-valyl)-3′-azido-3′-deoxythymidine]","activité (compared with AZT, in words)",[1]; listed as AZT-5′valine,deux foix plus élevée que celle de l'AZT
same,"activité (compared with AZT, in words)",[1]; [8],plus actif que l'AZT
same,ED₅₀,[1]; [6],0.0987 µM
same,SI,[1]; [6],386
same,ED₅₀,[1]; [7],0.0007 µM
same,SI,[1]; [7],5083
same,"toxicité (compared with AZT, in words)",cellules MT4; listed as AZT-5′valine,comparable à celle de ce dernier
same,"toxicité (compared with AZT, in words)",cellules MT4; [8],comparable à celle de l'AZT
same,CD₅₀,cellules MT4; [6],38.16 µM
same,CD₅₀,cellules MT4; [7],3.65 µM
"Cc1cn([C@H]2C[C@H](N=[N+]=[N-])[C@@H](CO)O2)c(=O)[nH]c1=O [AZT, 3′azido-3′déoxythymidine, reference compound]",indice de sélectivité,[1]; de l'ordre de,~6000
same,ED₅₀,[1]; [9],"0,0018 µM"
same,SI,[1]; [9],2780
same,ED₅₀,[1]; [7],0.0018 µM
same,SI,[1]; [7],2780
same,CD₅₀,cellules MT4; [10],15.8 µM and 14.2 µM
same,CD₅₀,cellules MT4; [9],5.06 µM
same,CD₅₀,cellules MT4; [7],"5,06 µM"
same,Pourcentage d'effet protecteur,"[2]; HUT-78, day 12, concentration 0.2 µM",36%
same,Pourcentage d'effet protecteur,"[2]; HUT-78, day 12, concentration 1 µM",45%
same,Pourcentage d'effet protecteur,"[2]; HUT-78, day 12, concentration 5 µM",65%
same,ED₅₀,"[2]; HUT-78 cells, multiplicity of infection 0.4, day 12",ED₅₀ AZT = 2 µM
same,ED₅₀,[3]; durée d'administration 3 jours,0.03 µM
same,ED₅₀,[3]; durée d'administration 14 jours,0.023 µM
same,% ILS,[4]; AZT 5 mg/kg/jour i.p. 5 days,26.8%
same,% ITL,[4]; AZT 5 mg/kg/jour i.p. 5 days,62.8%
same,Temps moyen d'apparition de la tumeur,[4]; AZT 5 mg/kg/jour i.p. 5 days,6.5 jours
same,Temps moyen de survie,[4]; AZT 5 mg/kg/jour i.p. 5 days,11.3 jours
same,Temps médian d'apparition de la tumeur,[4]; AZT 5 mg/kg/jour i.p. 5 days,7.3 jours
same,Temps médian de survie,[4]; AZT 5 mg/kg/jour i.p. 5 days,11.6 jours
same,% ILS,[4]; AZT 25 mg/kg/jour i.p. 5 days,74.8%
same,% ITL,[4]; AZT 25 mg/kg/jour i.p. 5 days,190%
same,Temps moyen de survie,[4]; AZT 25 mg/kg/jour i.p. 5 days,>19.8 jours
same,Temps médian d'apparition de la tumeur,[4]; AZT 25 mg/kg/jour i.p. 5 days,13 jours
same,Temps médian de survie,[4]; AZT 25 mg/kg/jour i.p. 5 days,16 jours
same,% ILS,[4]; AZT 125 mg/kg/jour i.p. 5 days,74.8%
same,% ITL,[4]; AZT 125 mg/kg/jour i.p. 5 days,137%
same,Temps moyen d'apparition de la tumeur,[4]; AZT 125 mg/kg/jour i.p. 5 days,10.2 jours
same,Temps moyen de survie,[4]; AZT 125 mg/kg/jour i.p. 5 days,>23.3 jours
same,Temps médian d'apparition de la tumeur,[4]; AZT 125 mg/kg/jour i.p. 5 days,10.6 jours
same,Temps médian de survie,[4]; AZT 125 mg/kg/jour i.p. 5 days,16 jours
same,Survivants au jour 25,[5]; dose 1 g/kg poids corporel (équivalent AZT 1),0%
same,Survivants au jour 25,[5]; dose 2 g/kg poids corporel (équivalent AZT 2),0%
same,augmentation du temps de survie des patients traités,HIV,~18 mois
"CC(=O)N[C@@H](CC(=O)OC[C@H]1O[C@@H](n2cc(C)c(=O)[nH]c2=O)C[C@@H]1N=[N+]=[N-])C(=O)O [AZT-5′hémiaspartyl (isomère majeur), 5′-O-(N-acétyl-L-hemiaspartyl)-3′-azido-3′ déoxythymidine]","activité (compared with AZT, in words)",[1],activités comparables
same,indice de sélectivité (in words),[1]; comparison with the hémisuccinyl derivative,comparable à celui du dérivé hémisuccinyl
same,ED₅₀,[1]; [6],4.000 µM
same,SI,[1]; [6],19
same,ED₅₀,[1]; [7],0.0161 µM
same,SI,[1]; [7],4046
same,"toxicité (compared with AZT, in words)",cellules MT4,moins toxiques que l'AZT
same,CD₅₀,cellules MT4; [6],74.83 µM
same,CD₅₀,cellules MT4; [7],65.06 µM
"Cc1cn([C@H]2C[C@H](N=[N+]=[N-])[C@@H](COC(=O)[C@@H](N)CC(C)C)O2)c(=O)[nH]c1=O [AZT-5′leucyl, 5′O-(L-leucyl)-3′-azido-3′déoxythymidine]",ED₅₀,"[1]; tableau 2, MT4 cells infected with 100 CCID₅₀ HIV-1, 5 days at 37°C, dose that protects 50 % of cells",.005 µM
same,SI,"[1]; tableau 2, indice de sélectivité = CD₅₀ sur ED₅₀, MT4 cells",5080
same,SI dérivé/SI AZT,"[1]; tableau 2, ratio within the same experiment, MT4 cells",2.1
same,CD₅₀,cellules MT4; [10],25.4 µM
